Laboratory results taken from patent US11008570B2, “3′ end caps for RNAi agents for use in RNA interference” (Novartis AG, priority 2013, dated 2021).

Legend:
[1] = tested on: FVII (Factor VII), mF7-III target gene; assay: RNA interference against FVII by 3′-capped siRNAs (FIG. 2); set-up: species or system mouse; details: 19-mer blunt-ended mF7-III siRNA, A12S17
[2] = tested on: human HAMP (Hepcidin) gene; assay: Hepcidin mRNA down regulation by HAMP siRNA-PAZ ligand conjugates in HuH-7 cells; format: cell-based; details: Hepcidin RNAi agent, format S402+ribitol+MOE clamp
[3] = Serum stability of siRNAs with 3′ end caps in mouse serum; details: 100% mouse serum, 37° C., up to 24 h; compared to luciferase and dTsdT controls
[4] = Serum stability of siRNAs with 3′ end caps in human serum; details: 100% human serum, 37° C., up to 24 h; gel with SYBR gold
[5] = tested on: human SSB; assay: Human SSB RNAi agent, RNA interference in vitro; format: cell-based

Compound: C1C2CC3CC1CC(C2)C3 [Adamantane]
- ability of the RNAi agent to perform RNA interference (FIG. 2) [1]: allow the RNAi agent to perform RNA interference

Compound: c1ccc(-c2ccccc2)cc1 [BP (biphenyl), biphenyl]
- Hepcidin KD at 5 nM in vitro (%) [2]: 68%

Compound: c1ccc(-c2ccccc2)cc1 [Biphenyl]
- stability in mouse serum [3]: increased stability
- stability in human serum [4]: increased stability
- ability of the RNAi agent to perform RNA interference (FIG. 2) [1]: allow the RNAi agent to perform RNA interference

Compound: OCCOCCOCCO [Triethylene glycol]
- ability of the RNAi agent to perform RNA interference (FIG. 2) [1]: allow the RNAi agent to perform RNA interference

Compound: hs_SSB_309_AS_18mer-C3-C6: "human SSB RNAi agent"; "AS: UuAcAUuAAAGUCUGU87-C3pC6", "S: cAAcAGAcuuuAAuGu55-C3pC6" (SEQ ID NO: 90, 91) (chain 1 UUACAUUAAAGUCUGUTG; chain 2 CAACAGACUUUAAUGUAA; C3pC6 3' end caps on both strands, further chemistry not given here)
- RNA interference in vitro [5]: effective at mediating RNA interference in vitro
